Where “and” joins values, the source holds several entries; their conditions need not be identical. Equal entries are not always repeated.
Experiments:
[1] = molecular target: T1, Angiotensin II Receptor (Bos taurus, UniProt P25104); test: Receptor binding assay: competition of [^125 I](Sar^1,Ile^8)AngII binding to beef adrenal cortex microsomal membranes; conditions: 60 min, room temperature, pH 7.4
T1 construct: The brownish tissue forming the adrenal cortex is scraped off and finely minced with scissors before homogenization; tissue local slaughter house (Maxwell-Cohen); host or cells: beef adrenal cortex, microsomal membranes (100,000×g pellet)
T1 sequence (P25104 1-359): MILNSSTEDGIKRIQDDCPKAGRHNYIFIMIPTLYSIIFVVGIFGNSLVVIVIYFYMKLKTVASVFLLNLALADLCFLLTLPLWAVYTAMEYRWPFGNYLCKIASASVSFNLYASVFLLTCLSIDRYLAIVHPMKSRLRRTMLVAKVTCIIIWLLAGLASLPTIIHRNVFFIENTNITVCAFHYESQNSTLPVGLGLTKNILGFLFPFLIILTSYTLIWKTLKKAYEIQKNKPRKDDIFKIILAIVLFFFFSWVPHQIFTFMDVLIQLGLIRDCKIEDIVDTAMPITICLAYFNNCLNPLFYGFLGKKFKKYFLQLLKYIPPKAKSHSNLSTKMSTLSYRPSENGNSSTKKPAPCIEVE
Source text: Beef adrenals are obtained from a local slaughter house (Maxwell-Cohen). [^125 […]. 2200 Ci/mmole, is purchased from Dupont (KEN@, Boston, Mass.). All unlabeled AngII analogs, Dimethylsulfoxide (DMSO), nucleotides, bovine serum albumin (BBA) are purchased from Sigma Chemical Co., St. Louis, MO U.S.A. Approximately sixteen (16) to twenty (20) beef adrenal glands are processed as follows: fresh adrenal glands received on crushed ice are cleaned of fatty tissues and the tough membranes encapsulating the glands are removed and discarded. The brownish tissue forming the adrenal cortex is scraped off and finely minced with scissors before homogenization care is taken to avoid contamination with medullary tissue during dissection. […] Unless otherwise indicated, all subsequent operations are done at […]. […] The homogenate is centrifuged first at low speed (3,000×g) for 10 min. […] This P2 pellet is discarded and the liquid phase is carefully decanted off in clean centrifuge tubes and recentrifuged at high speed (100,000×g) for 60 min. The translucent final pellet is harvested and combined in a small volume (20-50.0 ml) of […] Tris.HCl buffer, pH 7.2. A 100 ul aliquot is withdrawn and the protein content of the preparation is determined by the Lowry's method (Lowry, O. H., Rosebrough, N. P., Parr, A. L. and Randall, R. J., Protein measurement with Folin phenol reagent. J. Biol. Chem., […], 265-275, 1951). The pelleted membrane is reconstituted in 50.0 mM Tris.HCl buffer containing 0.1 mM of phenylmethylsulfonyl fluoride (PMSF) to give approximately a protein concentration of 2.5 mg per ml of tissue suspension. […] In competition studies, experimental compounds are diluted in dimethylsulfoxide (DMSO) and added in 20 ul to wells before the introduction of tissue membranes. This concentration of DMSO is found to have no negative effects on the binding of [^125 I] ([…] to the membranes. Assays are performed in triplicate. The wells are left undisturbed for 60 min. at room temperature. Following incubation, all wells are harvested at once with a Brandel® Harvester especially designed for a 96 well plate (Brandel® Biomedical Research & Development Labs. Inc., Gaithersburg, MD, U.S.A.). The filter discs are washed with 10×1.0 ml of cold 0.9% NaCl to remove unbound ligand. Presoaking the filter sheet in 0.1% polyethyleneimine in normal saline (PEI/Saline) greatly reduces the radioactivity retained by the filter blanks. This method is routinely used. The filters are removed from the filter grid and counted in a Parkard® Cobra Gamma Counter for 1 min. (Packard Instrument Co., Downers Grove, Ill, U.S.A.). The binding data are analyzed by the non-linear interactive "LUNDON-11" program (LUNDON SOFTWARE Inc., Cleveland, OH U.S.A.).

[2] = test system: Angiotensin II (AII) vasopressor response; test: AII Challenge: antagonism of the angiotensin II vasopressor response in conscious SHR; format: in vivo, Spontaneously hypertensive rats (Male okamoto-Aoki SHR); conditions: 15 mg/kg I.V.; for Average Change / Inhibition: n = 2; for Change / Control Before AII / Response After AII: per rat
Source text: […] Conscious Male okamoto-Aoki SHR, 16-20 weeks old, weighing approximately 330 g are purchased from Charles River Labs (Wilmington, MA). Conscious rats are restrained in a supine position with elastic tape. The area at the base of the tail is locally anesthetized by subcutaneous infiltration with 2% procaine. […] The cannula is secured, heparinized (1,000 I.U./ml), sealed and the wound is closed. The animals are placed in plastic restraining cages in an upright position. The cannula is attached to a Statham P23Db pressure transducer, and pulsatile blood pressure is recorded to 10-15 minutes with a Gould Brush recorder. (Chan et al., (Drug Development Res., 18:75-94, 1989). […] Co., St. […] […] […] […] […] A compound is considered active if at 30 mg/kg i.v. it antagonized at least 50% of the response.

[3] = AII 0.05 mcg/kg IV, 30 min post dose
[4] = AII 0.05 mcg/kg IV, 60 min post dose
[5] = AII 0.05 mcg/kg IV, 90 min post dose
[6] = AII 0.05 mcg/kg IV, 120 min post dose
[7] = AII 0.05 mcg/kg IV, 180 min post dose
[8] = AII 0.1 mcg/kg IV, 30 min post dose
[9] = AII 0.1 mcg/kg IV, 60 min post dose
[10] = AII 0.1 mcg/kg IV, 90 min post dose
[11] = AII 0.1 mcg/kg IV, 120 min post dose
[12] = AII 0.1 mcg/kg IV, 180 min post dose

CCCCc1nc2ccc(C3(C)CC(C(=O)OCC)=NO3)cc2c(=O)n1Cc1ccc(-c2ccccc2-c2nnn[nH]2)cc1 (stereo not drawn) [Example 30]
IC50 [1]: 200 nM | Average Change [2, 3]: 10 mmhg | Inhibition [2, 3]: 78% | Change [2, 3]: 15 mmhg and 5 mmhg | Control Before AII [2, 3]: 175 mmhg and 215 mmhg | Response After AII [2, 3]: 190 mmhg and 220 mmhg | Average Change [2, 4]: 9 mmhg | Inhibition [2, 4]: 80% | Change [2, 4]: 0 mmhg and 18 mmhg | Control Before AII [2, 4]: 190 mmhg and 207 mmhg | Response After AII [2, 4]: 190 mmhg and 225 mmhg | Average Change [2, 5]: 20 mmhg | Inhibition [2, 5]: 57% | Change [2, 5]: 20 mmhg | Control Before AII [2, 5]: 170 mmhg and 210 mmhg | Response After AII [2, 5]: 190 mmhg and 230 mmhg | Average Change [2, 6]: 35 mmhg | Inhibition [2, 6]: 24% | Change [2, 6]: 40 mmhg and 30 mmhg | Control Before AII [2, 6]: 165 mmhg and 200 mmhg | Response After AII [2, 6]: 205 mmhg and 230 mmhg | Average Change [2, 7]: 5 mmhg | Inhibition [2, 7]: 89% | Change [2, 7]: 5 mmhg | Control Before AII [2, 7]: 200 mmhg and 240 mmhg | Response After AII [2, 7]: 205 mmhg and 245 mmhg | Average Change [2, 8]: 17 mmhg | Inhibition [2, 8]: 58% | Change [2, 8]: 14 mmhg and 20 mmhg | Control Before AII [2, 8]: 170 mmhg and 210 mmhg | Response After AII [2, 8]: 184 mmhg and 230 mmhg | Average Change [2, 9]: 20 mmhg | Inhibition [2, 9]: 50% | Change [2, 9]: 15 mmhg and 25 mmhg | Control Before AII [2, 9]: 185 mmhg and 200 mmhg | Response After AII [2, 9]: 200 mmhg and 225 mmhg | Average Change [2, 10]: 32.5 mmhg | Inhibition [2, 10]: 19% | Change [2, 10]: 35 mmhg and 30 mmhg | Control Before AII [2, 10]: 165 mmhg and 205 mmhg | Response After AII [2, 10]: 200 mmhg and 235 mmhg | Average Change [2, 11]: 29 mmhg | Inhibition [2, 11]: 28% | Change [2, 11]: 25 mmhg and 33 mmhg | Control Before AII [2, 11]: 175 mmhg and 200 mmhg | Response After AII [2, 11]: 200 mmhg and 233 mmhg | Average Change [2, 12]: 15 mmhg | Inhibition [2, 12]: 63% | Change [2, 12]: 25 mmhg and 5 mmhg | Control Before AII [2, 12]: 190 mmhg and 240 mmhg | Response After AII [2, 12]: 215 mmhg and 245 mmhg
